US20130137573A1, “HERBICIDAL COMPOSITIONS COMPRISING, AND METHODS OF USE OF, HERBICIDALLY ACTIVE PYRANDIONES” (priority 2009, published 2013)

Columns and labels:
Type in all cases: in vivo
[1] = system: Echinochloa crus-galli (ECHCG); assay: Biological Example 4 (Test 110): transplanted (TPR) method, ECHCG damage; settings: EC050 into flood water, ECHCG 4 leaves, 14 days after application
Protocol: (§1) Rice seeds, variety Koshihikari, were sown in seed trays, after 7 days they were transplanted as 3 groups of 2 plants, into pots containing a standard sandy loam soil saturated with water replicating swampy conditions. These were grown on for 9 days in a glasshouse bay 30/20° C. day/night; 18/6 hours light/dark; 75% humidity). Approx 10-20 seeds of Echinochloa crus-galli were sown into pots 13 days prior to application, in the same conditions as the rice. All pots were flooded to 2-3 cm water depth the day prior to application. Growth stages at time of application were: Rice: 2-3 leaves, ECHCG: 4 leaves. The test solutions were prepared by mixing the appropriate aliquots of the test substance (here, compound A-13 as EC050 Formulation Example 1) in de-ionised water to give the desired treatment concentration.
(§2) Application was made by pipetting the required amount of the test solution gently into the flood water of the appropriate pot.
(§3) The test plants were grown on in the same glasshouse conditions, and watered twice daily keeping the flood water at a depth of 2-3 cm.
(§4) No. of repetitions: 1 test only.
(§5) A visual assessment of the % herbicidal damage was made 14 days after application (0=no damage to plants, 100=total kill).

[2] = system: Koshihikari rice; assay: Biological Example 4 (Test 110): transplanted (TPR) method, rice damage; settings: for Transplanted Rice Koshihikari % herbicidal damage: 14 days after application
Protocol: as §1, §2, §3, §4, §5

[3] = system: Echinochloa crus-galli (ECHCG); assay: Biological Example 3 (Test 120): visual herbicidal damage to flooded ECHCG; settings: EC050, 14DAA
Protocol: as §1, with “clay” for “sandy loam”, “(30/20°” for “30/20°”, “leaves;” for “leaves,”, “2-3” for “4”, “leaves.” for “leaves. The test solutions were prepared by mixing the appropriate aliquots of the test substance (here, compound A-13 as EC050 Formulation Example 1) in de-ionised water to give the desired treatment concentration.”
The test solutions were prepared by mixing the appropriate aliquots of the test substance (here, compound A-13 as the EC050 Formulation Example 1 disclosed herein) in de-ionised water to give the desired treatment concentration.
as §2, §3, §5

[4] = system: Echinochloa crus-galli (ECHCG); assay: Biological Example 1 (Test 125): visual herbicidal damage to flooded ECHCG; settings: 14 DAA
Protocol: Rice seeds, variety IR-64 (an indica type of rice), were sown in seed trays. After 7 days the resulting plants were transplanted as 3 groups of 2 plants, into pots containing a standard sandy loam soil saturated with water replicating swampy conditions. These were grown on for a further 9 days in a glasshouse bay (30/20° C. day/night; 18/6 hours light/dark; 75% humidity). Leptochloa chinensis (LEFCH) and Echinochloa crus-galli (ECHCG) were sown as 2 separate groups of approx 10-20 seeds into pots 13 days prior to application of the test substances, in the same glasshouse conditions as the rice. Therefore, each pot of weeds contained a group of LEFCH and a separate group of ECHCG. All pots of rice and all pots of weeds were flooded to 2-3 cm water depth the day prior to application of the test substances. Growth stages at time of application were as follows: Rice: from 2 leaves on the main stem up to tillering; ECHCG: from 2 leaves on the main stem up to tillering; LEFCH: 2-3 leaves.
Test solutions were prepared by mixing the appropriate aliquots of the test substances in deionised water to give the desired treatment concentration. Most of the test substances were used as formulated products. Specifically, compound A-13 was applied as the EC050 formulation disclosed in Formulation Example 1 herein (EC=emulsifiable concentrate). Reference compound A-4 was applied as the EC050 formulation disclosed in Reference Formulation Example 2 herein. Pyroxasulfone (a comparator co-herbicide) was applied as the SC050 formulation disclosed in Reference Formulation Example 6 herein (SC=Suspension concentrate). Imazosulfuron (a comparator co-herbicide) was applied as a GR0.25 formulation (GR=granule).
The test substances which were pure active ingredient (e.g. propyrisulfuron & fenoxasulfone & compound A-16) (labelled as ‘Technical’ in the following results table), were prepared by dissolving in 10.56% Emulsogen EL™ (castor oil ethoxylate, CAS Registry number 61791-12-6), 42.22% N-methylpyrrolidone and 42.22% dipropylene glycol mono-ethyl ether to give a stock solution containing 5% of the test substance and 95% of (Emulsogen EL™, N-methylpyrrolidone and dipropylene glycol mono-ethyl ether).
Application of the test substances was made by pipetting the required amount of the test solution or the test formulation gently into the flood water of the appropriate pot.
The test plants were then grown on in the same glasshouse conditions, and watered twice daily keeping the flood water at a depth of 2-3 cm.
A visual assessment of the % herbicidal damage was made 7 & 14 days after application […], and the results are presented herein as % visual herbicidal damage where 0=no damage to plants and 100=total kill.

CC1(C)OC(C)(C)C(O)=C(c2cc(-c3ccc(Cl)cc3F)ccc2C2CC2)C1=O [compound A-13, 4-(4′-Chloro-4-cyclopropyl-2′-fluorobiphenyl-3-yl)-2,2,6,6-tetramethylpyran-3,5-dione]
Transplanted ECHCG % herbicidal damage ([1]; 30 g/ha): 0% | Transplanted ECHCG % herbicidal damage ([1]; 60 g/ha): 20% | Transplanted ECHCG % herbicidal damage ([1]; 125 g/ha): 75% | Transplanted ECHCG % herbicidal damage ([1]; 500 g/ha): 99% | Transplanted Rice Koshihikari % herbicidal damage ([2]; 60 g/ha, EC050, into flood water): 15% | Transplanted Rice Koshihikari % herbicidal damage ([2]; 125 g/ha, EC050 into flood water): 20% | Transplanted Rice Koshihikari % herbicidal damage ([2]; 500 g/ha, EC050 into flood water): 60% | selectivity margin between rice and ECHCG ([2]; Biological Example 4, transplanted rice, 125 g/ha): certain selectivity margin | ECHCG % herbicidal damage, Mean of 2 repetitions ([3]; 30 g/ha): 58% | ECHCG % herbicidal damage, Repetition A ([3]; 30 g/ha): 55% | ECHCG % herbicidal damage, Repetition B ([3]; 30 g/ha): 60% | ECHCG % herbicidal damage, Mean of 2 repetitions ([3]; 60 g/ha): 63% | ECHCG % herbicidal damage, Repetition A ([3]; 60 g/ha): 65% | ECHCG % herbicidal damage, Repetition B ([3]; 60 g/ha): 60% | ECHCG % herbicidal damage, Mean of 2 repetitions ([3]; 125 g/ha): 88% | ECHCG % herbicidal damage, Repetition A ([3]; 125 g/ha): 85% | ECHCG % herbicidal damage, Repetition B ([3]; 125 g/ha): 90% | ECHCG control (span of the 2 repetitions) ([3]; 125 g/ha): 85-90% | ECHCG control ([4]; 60 g/ha applied alone (EC050)): 35% | ECHCG control ([4]; 90 g/ha applied alone (EC050)): 55% | ECHCG control ([4]; 120 g/ha applied alone (EC050)): 55%
